Laboratory results from ChEMBL document CHEMBL4699460, “Integrating DNA-encoded chemical libraries with virtual combinatorial library screening: Optimizing a PARP10 inhibitor” (Bioorg Med Chem Lett, 2020).

How the values were obtained:
[1] = molecular target: T1, Protein mono-ADP-ribosyltransferase TIPARP (Homo sapiens) (UniProt Q7Z3E1); assay: (§1) Inhibition of N-terminal FLAG-tagged human PARP7 (400 to 657 residues) expressed in baculovirus infected Sf9 cells assessed as reduction in NAD+-dependent ADP ribosylation using histone as substrate at 10 uM incubated for 1 hr in presence of biotinylated NAD+ and activated DNA by chemiluminescence based microplate reader assay relative to control
T1 sequence (whole entry): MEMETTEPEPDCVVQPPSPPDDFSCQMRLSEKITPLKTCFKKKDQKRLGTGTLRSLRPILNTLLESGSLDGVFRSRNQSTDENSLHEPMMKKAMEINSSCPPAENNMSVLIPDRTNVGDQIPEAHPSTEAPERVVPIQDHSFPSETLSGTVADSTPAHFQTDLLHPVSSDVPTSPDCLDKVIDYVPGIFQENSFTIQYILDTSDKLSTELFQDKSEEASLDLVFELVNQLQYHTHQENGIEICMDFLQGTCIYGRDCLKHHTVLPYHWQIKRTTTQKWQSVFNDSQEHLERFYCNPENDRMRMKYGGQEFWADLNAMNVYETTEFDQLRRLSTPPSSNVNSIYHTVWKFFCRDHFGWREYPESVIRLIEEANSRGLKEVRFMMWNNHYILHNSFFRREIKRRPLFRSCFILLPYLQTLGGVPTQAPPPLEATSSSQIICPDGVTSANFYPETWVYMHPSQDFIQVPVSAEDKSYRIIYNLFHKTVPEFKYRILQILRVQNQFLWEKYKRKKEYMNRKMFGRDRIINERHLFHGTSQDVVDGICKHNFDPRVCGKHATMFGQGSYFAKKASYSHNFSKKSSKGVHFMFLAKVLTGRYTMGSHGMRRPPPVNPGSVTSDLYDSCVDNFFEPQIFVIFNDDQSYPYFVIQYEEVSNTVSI

[2] = molecular target: Protein mono-ADP-ribosyltransferase PARP6 (Homo sapiens) (UniProt Q2NL67); assay: as §1, with “GST tagged full length” for “FLAG-tagged”, “PARP6” for “PARP7 (400 to 657 residues)”
[3] = molecular target: T2, Protein mono-ADP-ribosyltransferase PARP8 (Homo sapiens) (UniProt Q8N3A8); assay: Inhibition of PARP8 (unknown origin) assessed as reduction in NAD+-dependent ADP ribosylation using histone as substrate at 10 uM incubated for 1 hr in presence of biotinylated NAD+ and activated DNA by chemiluminescence based microplate reader assay relative to control
T2 sequence (whole entry): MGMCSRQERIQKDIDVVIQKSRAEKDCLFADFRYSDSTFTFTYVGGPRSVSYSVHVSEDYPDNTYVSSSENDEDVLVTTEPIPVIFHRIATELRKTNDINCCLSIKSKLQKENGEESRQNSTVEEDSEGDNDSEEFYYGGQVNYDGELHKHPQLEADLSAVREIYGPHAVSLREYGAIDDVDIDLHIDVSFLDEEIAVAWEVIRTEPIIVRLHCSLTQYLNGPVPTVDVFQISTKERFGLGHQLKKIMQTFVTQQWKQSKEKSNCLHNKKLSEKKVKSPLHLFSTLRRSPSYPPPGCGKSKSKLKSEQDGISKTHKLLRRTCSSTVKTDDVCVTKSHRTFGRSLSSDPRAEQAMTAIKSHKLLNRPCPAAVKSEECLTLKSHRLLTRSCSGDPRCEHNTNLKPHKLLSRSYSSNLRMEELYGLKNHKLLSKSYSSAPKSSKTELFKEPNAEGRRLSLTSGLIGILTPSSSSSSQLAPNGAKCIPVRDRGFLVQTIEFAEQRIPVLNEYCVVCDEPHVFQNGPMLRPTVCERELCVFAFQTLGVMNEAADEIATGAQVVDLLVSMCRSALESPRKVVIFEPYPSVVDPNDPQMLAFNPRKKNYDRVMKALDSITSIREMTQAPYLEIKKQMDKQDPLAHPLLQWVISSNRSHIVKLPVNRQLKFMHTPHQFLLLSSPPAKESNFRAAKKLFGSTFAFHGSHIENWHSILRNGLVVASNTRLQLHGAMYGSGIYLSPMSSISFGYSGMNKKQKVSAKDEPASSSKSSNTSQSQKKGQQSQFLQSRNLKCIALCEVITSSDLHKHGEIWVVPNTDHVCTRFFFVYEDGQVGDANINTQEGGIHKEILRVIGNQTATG

[4] = molecular target: T3, Protein mono-ADP-ribosyltransferase PARP11 (Homo sapiens) (UniProt Q9NR21); assay: as §1, with “GST tagged” for “FLAG-tagged”, “PARP11 (8” for “PARP7 (400”, “338” for “657”
T3 sequence (whole entry): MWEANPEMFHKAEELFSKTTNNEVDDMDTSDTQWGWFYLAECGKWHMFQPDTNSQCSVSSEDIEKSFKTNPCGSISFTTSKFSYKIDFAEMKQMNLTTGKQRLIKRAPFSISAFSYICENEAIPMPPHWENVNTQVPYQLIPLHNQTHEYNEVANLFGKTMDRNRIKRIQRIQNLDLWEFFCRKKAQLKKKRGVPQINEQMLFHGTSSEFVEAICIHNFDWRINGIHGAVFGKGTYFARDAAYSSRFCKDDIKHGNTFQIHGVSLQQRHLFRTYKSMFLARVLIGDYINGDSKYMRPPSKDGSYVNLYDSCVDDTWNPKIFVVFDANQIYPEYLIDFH

[5] = molecular target: Poly [ADP-ribose] polymerase 1 (Homo sapiens) (UniProt P09874); assay: as §1, with “GST tagged” for “FLAG-tagged”, “PARP1 (2” for “PARP7 (400”, “1041” for “657”
[6] = molecular target: T4, Protein mono-ADP-ribosyltransferase PARP3 (Homo sapiens) (UniProt Q9Y6F1); assay: as §1, with “GST tagged full length” for “FLAG-tagged”, “PARP3” for “PARP7 (400 to 657 residues)”
T4 sequence (whole entry): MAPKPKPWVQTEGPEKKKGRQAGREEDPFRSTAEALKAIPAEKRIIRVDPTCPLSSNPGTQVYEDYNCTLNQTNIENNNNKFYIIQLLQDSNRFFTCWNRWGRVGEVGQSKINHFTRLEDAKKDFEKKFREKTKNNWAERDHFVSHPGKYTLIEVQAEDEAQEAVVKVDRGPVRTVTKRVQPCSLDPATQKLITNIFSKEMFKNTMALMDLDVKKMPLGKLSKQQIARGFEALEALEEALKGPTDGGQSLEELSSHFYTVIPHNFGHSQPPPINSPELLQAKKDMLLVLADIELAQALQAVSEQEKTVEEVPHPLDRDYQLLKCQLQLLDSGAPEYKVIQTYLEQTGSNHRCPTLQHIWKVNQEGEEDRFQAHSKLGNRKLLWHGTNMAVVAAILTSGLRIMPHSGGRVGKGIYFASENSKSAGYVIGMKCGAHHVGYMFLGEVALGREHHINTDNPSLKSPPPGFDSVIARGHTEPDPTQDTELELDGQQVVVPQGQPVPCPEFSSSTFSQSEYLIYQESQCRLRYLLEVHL

Chain of Poly [ADP-ribose] polymerase 1 (Homo sapiens) (P09874 whole entry, the tested form may be a part): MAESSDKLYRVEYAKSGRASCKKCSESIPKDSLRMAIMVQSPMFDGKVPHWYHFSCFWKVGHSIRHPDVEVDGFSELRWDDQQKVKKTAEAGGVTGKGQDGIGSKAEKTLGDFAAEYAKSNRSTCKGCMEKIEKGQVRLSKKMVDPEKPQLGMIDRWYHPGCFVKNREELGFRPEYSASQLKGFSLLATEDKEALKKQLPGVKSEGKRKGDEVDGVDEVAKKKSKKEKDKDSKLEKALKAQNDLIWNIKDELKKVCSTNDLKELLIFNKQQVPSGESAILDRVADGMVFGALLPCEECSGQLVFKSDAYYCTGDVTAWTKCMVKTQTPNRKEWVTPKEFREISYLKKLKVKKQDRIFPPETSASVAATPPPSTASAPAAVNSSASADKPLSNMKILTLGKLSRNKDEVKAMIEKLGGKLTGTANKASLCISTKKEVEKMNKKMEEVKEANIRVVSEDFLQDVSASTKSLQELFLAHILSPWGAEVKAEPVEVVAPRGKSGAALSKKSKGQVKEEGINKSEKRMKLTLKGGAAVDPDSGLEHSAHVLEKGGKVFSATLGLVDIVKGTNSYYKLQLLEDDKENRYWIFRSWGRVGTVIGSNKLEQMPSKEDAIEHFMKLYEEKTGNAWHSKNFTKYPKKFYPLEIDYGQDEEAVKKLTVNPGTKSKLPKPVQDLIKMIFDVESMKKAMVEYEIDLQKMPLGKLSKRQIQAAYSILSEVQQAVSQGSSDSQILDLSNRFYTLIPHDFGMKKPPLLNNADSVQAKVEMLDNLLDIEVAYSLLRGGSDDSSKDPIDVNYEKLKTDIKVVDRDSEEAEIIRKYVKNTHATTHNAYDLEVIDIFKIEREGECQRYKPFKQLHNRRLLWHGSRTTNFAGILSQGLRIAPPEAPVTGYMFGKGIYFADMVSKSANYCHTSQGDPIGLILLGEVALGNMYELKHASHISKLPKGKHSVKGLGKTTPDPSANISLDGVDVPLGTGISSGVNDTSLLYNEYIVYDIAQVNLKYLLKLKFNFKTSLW
Chain of Protein mono-ADP-ribosyltransferase PARP6 (Homo sapiens) (Q2NL67 whole entry, the tested form may be a part): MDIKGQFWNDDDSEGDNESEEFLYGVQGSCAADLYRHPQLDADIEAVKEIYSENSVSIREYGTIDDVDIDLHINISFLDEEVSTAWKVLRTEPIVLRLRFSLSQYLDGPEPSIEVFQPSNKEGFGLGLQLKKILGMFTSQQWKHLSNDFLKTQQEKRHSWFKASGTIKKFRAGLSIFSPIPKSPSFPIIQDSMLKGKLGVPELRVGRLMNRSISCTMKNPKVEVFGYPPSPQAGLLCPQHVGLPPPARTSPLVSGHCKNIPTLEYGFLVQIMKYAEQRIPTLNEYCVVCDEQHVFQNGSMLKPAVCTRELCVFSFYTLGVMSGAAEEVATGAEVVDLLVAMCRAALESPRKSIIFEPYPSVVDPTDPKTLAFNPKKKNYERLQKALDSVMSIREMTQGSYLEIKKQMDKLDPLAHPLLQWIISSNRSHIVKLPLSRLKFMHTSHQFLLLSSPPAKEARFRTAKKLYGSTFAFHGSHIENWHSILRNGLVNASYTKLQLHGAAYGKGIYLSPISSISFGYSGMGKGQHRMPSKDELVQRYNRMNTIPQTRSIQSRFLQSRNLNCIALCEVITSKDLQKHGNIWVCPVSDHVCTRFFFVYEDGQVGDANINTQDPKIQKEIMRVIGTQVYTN

SMILES | inhibition [1] [%] | inhibition [2] [%] | inhibition [3] [%] | inhibition [4] [%] | inhibition [5] [%] | inhibition [6] [%]
CC1(CNC(=O)COc2cccc3c2CCCC3=O)CCN(C(=O)CCc2nc3ccccc3[nH]c2=O)CC1 | > 50 | 0 | 5 | > 50 | > 50 | 22
CNC(=O)[C@H](CNC(=O)CCc1nc2ccccc2[nH]c1=O)NC(=O)c1ccc2c(c1)CCCC2=O | < 25 | < 25 | < 25 | < 25 | < 25 | < 25
